Results on 7 compounds are retold here after PubChem BioAssay (NCI).

Holding throughout (experiment): growth of human tumour cells (NCI), 48 h
Test [1] concerns BT-549 breast.
The subject of test [2] is CCRF-CEM leukemia.
The subject of test [3] is COLO 205 colon.
Test [4] deals with IGROV1 ovarian.
The test system of test [5] is LOX IMVI melanoma.
For test [6], the system named is NCI-H226 lung.
Test [7] concerns NCI-H460 lung.
The subject of test [8] is NCI-H522 lung.
For test [9], the system named is OVCAR-4 ovarian.
The test system of test [10] is U251 CNS.

“And” between values parts separate entries of the source, which are not always exact repeats. Equal values may be shown once.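 48-hour exposure; five concentrations; linearly interpolated endpoints. GI50 is the concentration that inhibits growth by half. TGI: total growth inhibition.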

As to `COc1ccc([C@H]2O[C@@H](CO)C[C@]2(O)c2ccc(OC)cc2)cc1`, the GI50 in test [1] is greater than 100 µM; in [2], greater than 100 µM; in test [3] it was greater than 100000 nM; in [4] it was greater than 100000 nM; in test [5] it was greater than 100000 nM; in test [6] it was greater than 100 µM. Moreover, the GI50 in [7] was greater than 100000 nM; in test [8], greater than 100000 nM; in [9], greater than 100 µM; in test [10], greater than 100 µM. The TGI in [1], in [2], in test [3], in test [4], in [5] and in test [6] was greater than 100 µM throughout. The TGI in test [7], in [8], in test [9] and in [10] was greater than 100 µM in each case.
Consider `O=c1[nH]c(-c2ccc(C(F)(F)F)cc2)nc2c1CSCC2`, for which the GI50 in test [1] is greater than 94.3 µM; in [2], greater than 100 µM; in [3] it was greater than 100000 nM; in [4] it was 43100 nM; in test [5] it was greater than 71100 nM; in test [6], 30.4 µM. In addition, the GI50 in [7] is greater than 100000 nM; in [8], greater than 100000 nM; in test [9] it was 20.1 µM; in [10] it was 17.9 µM. Further, the TGI in test [1], in [2], in test [3], in [4], in test [5] and in test [6] was greater than 100 µM in each case. The TGI in [7] was greater than 100 µM; in [8], greater than 100 µM; in [9], greater than 100 µM; in test [10], greater than 89.6 µM.
As to `Cc1nc(NC(=O)N2CCC[C@H]2C(N)=O)sc1-c1ccnc(C(C)(C)C(F)(F)F)c1`, the GI50 in test [1] was 4.91 µM and 6.33 µM; in test [2], 5.13 µM and 5.71 µM; in test [3], 2750 nM and 1380 nM; in test [4], 55.8 nM and 121 nM; in test [5], 3360 nM and 2580 nM; in test [6], 5.26 µM and 4.54 µM. The GI50 in [7] is 1360 nM and 2020 nM; in test [8], 6410 nM and 8170 nM; in test [9], 13.3 µM and > 10 µM; in [10] it was 3.22 µM and 5.54 µM. Besides, the TGI in test [1] is 44.6 µM and > 10 µM; in [2] it was 75.4 µM and > 10 µM; in [3] it was 19.6 µM and > 10 µM; in test [4], 0.483 µM and 0.816 µM; in test [5], 22 µM and > 10 µM; in [6], 45.7 µM and > 10 µM. Besides, the TGI in [7] is greater than 100 µM; in [8], 27.1 µM and > 10 µM; in test [9] it was greater than 75.3 µM; in test [10], 18.7 µM and > 10 µM.
As to `C#Cc1ccc(NC(=O)c2ccc(/C=C/C(=O)c3nccn3C)cc2)cc1`, the GI50 was 0.358 µM in test [1]; 0.486 µM in test [2]; 592 nM in test [3]; 407 nM in test [4]; 365 nM in test [5]; 0.605 µM in test [6]. Further, the GI50 in test [7] is 586 nM; in test [8], 518 nM; in test [9], 0.727 µM; in test [10], 0.347 µM. For the same compound, the TGI in test [1] was determined as 0.845 µM; in [2], 1.59 µM; in test [3] it was 1.36 µM; in test [4], 0.884 µM; in test [5], 0.711 µM; in test [6] it was 2 µM. The TGI in [7] is 1.64 µM; in test [8], 1.37 µM; in test [9], 25 µM; in test [10] it was 0.757 µM.
Take `O=C(/C=C/c1ccco1)Nc1ncc(Cc2ccc(F)cc2)s1`: the GI50 in test [1] is 0.368 µM; in test [2], 0.0614 µM; in test [3], 35.2 nM; in [4] it was 167 nM; in test [5], 91.8 nM; in [7] it was 39.7 nM. In addition, the GI50 in [8] was 25.5 nM; in [9], 1.22 µM; in test [10] it was 0.0615 µM. In addition, the TGI in [1] is greater than 25.3 µM; in test [2], greater than 100 µM; in test [3], 0.137 µM; in [4], greater than 100 µM; in [5], greater than 100 µM; in [6] it was greater than 100 µM. For the same compound, the TGI is greater than 100 µM in test [7], 0.191 µM in test [8], greater than 100 µM in test [9] and greater than 100 µM in test [10].
As for `COc1ccc(C(O)c2cc3c(N)c(C(=O)Nc4cccc(Br)c4)sc3nc2C)cc1` (centres undefined), the GI50 was 0.17 µM in test [1]; 0.121 µM in test [2]; 127 nM in [3]; 231 nM in test [4]; 154 nM in [5]; 0.18 µM in test [6]. The GI50 is 109 nM in [7], 81.4 nM in test [8], 0.224 µM in test [9] and 0.119 µM in [10]. The TGI in [1] was greater than 23.2 µM; in [2], greater than 100 µM; in test [3], 0.773 µM; in test [4], greater than 100 µM; in [5], greater than 32.4 µM; in test [6] it was greater than 47 µM. For the same compound, the TGI in test [7] is 3.61 µM; in test [8], 1.85 µM; in [9] it was greater than 84.2 µM; in test [10], greater than 41.1 µM.
Regarding `Oc1ccccc1-n1c(-c2ccccc2)ccc1-c1ccccc1`, the GI50 in [1] is 13.4 µM; in [2], 4.77 µM; in [3], 15300 nM; in test [4], 4100 nM; in test [5] it was 6100 nM; in test [6], 8.69 µM. The GI50 in test [7] was 4350 nM; in test [8], 2740 nM; in [9], 7.24 µM; in test [10], 7.66 µM. The TGI in test [1] came to 89.5 µM; in test [2] it was 71.1 µM; in test [3] it was 56.6 µM; in test [4], 19.4 µM; in test [5], 20.5 µM; in [6], 21.9 µM. For the same compound, the TGI in test [7] was determined as 17.7 µM; in [8] it was 12.8 µM; in test [9] it was 23.3 µM; in test [10], 20.6 µM.
